{
  "source": "patent US4119784A",
  "about": "“Anionic substituted sulfonamido biphenyls” (American Cyanamid Company, priority 1977, dated 1978)",
  "format_in_all_cases": "biochemical",
  "key": {"[1]": {"tested_on": "activated human C1", "assay": "Test, Code 026 (C1 inhibitor)", "conditions": "activity in wells of a two-fold serial dilution assay; higher well number indicates higher activity", "from_the_text": "(§1) An active inhibitor protects C2 from C1 and C4; (ii) Test, Code 035 (C3-C9 inhibitor)--This test determines the ability of the late components of human complement (C3-C9) to lyse EAC 142 in the presence of appropriate dilutions of the test compound. An active inhibitor protects EAC 142 from lysis by human C3-C9; (iii) Test, Code 036 (C-Shunt inhibitor)--In this test human erythrocytes rendered fragile are lysed in autologous serum via the shunt pathway activated by cobra venom factor in the presence of appropriate dilutions of the test compound. Inhibition of the shunt pathway results in failure of lysis; (iv) Forssman Vasculitis Test--Here, the well known complement dependent lesion, Forssman vasculitis, is produced in guinea pigs by intradermal injection of rabbit anti-Forssman antiserum. […]"}, "[2]": {"tested_on": "late components of human complement (C3-C9)", "assay": "Test, Code 035 (C3-C9 inhibitor)", "set-up": "key: N = Negative", "conditions": "protection of EAC 142 from lysis by human C3-C9; two-fold serial dilution assay", "from_the_text": "as §1"}, "[3]": {"tested_on": "shunt pathway activated by cobra venom factor", "assay": "Test, Code 036 (C-Shunt inhibitor)", "conditions": "human erythrocytes in autologous serum; two-fold serial dilution assay; higher well number indicates higher activity", "from_the_text": "as §1"}},
  "note": "Structures can show the parent of a compound that is named as a salt.",
  "data": [
    {"smiles": "O=C(O)c1cc(NS(=O)(=O)c2ccc(-c3ccc(S(=O)(=O)Nc4cc(C(=O)O)cc(C(=O)O)c4)cc3S(=O)(=O)Nc3cc(C(=O)O)cc(C(=O)O)c3)c(S(=O)(=O)Nc3cc(C(=O)O)cc(C(=O)O)c3)c2)cc(C(=O)O)c1", "note": "[5,5',5\",5'\"-[2,2',4,4'-Biphenyltetrayltetrakis(sulfonylimino)[tetraisophthalic acid octasodium salt]", "values": [
      {"measurement": "Cl 026 Wells", "setting": "[1]", "result": "+7 Wells"},
      {"measurement": "C-Late 035 Wells", "setting": "[2]", "result": "N"},
      {"measurement": "Shunt Inhibition 036 Wells", "setting": "[3]", "result": "+3 Wells"}
    ]}
  ]
}
